These are literature values, as cited in publication PMC6155437 (Molecules : A Journal of Synthetic Chemistry and Natural …, 2017).

Some results are limits rather than exact numbers.

One may read the IC50 as the concentration needed to halve the response being measured. Broadly, the Ki is the equilibrium dissociation constant of an inhibitor or competing ligand from its target.

One data set has as its target CYP3A4 (Homo sapiens, UniProt P08684). The note with it: CYP3A4 activity; cited from earlier work.
For a further data set, the target named is T1, CYP2C9 (Homo sapiens, UniProt P11712).
T1 construct: tissue Corning Life Sciences; host or cells: pooled human liver microsomes (150 donors)
T1 sequence (P11712 whole entry): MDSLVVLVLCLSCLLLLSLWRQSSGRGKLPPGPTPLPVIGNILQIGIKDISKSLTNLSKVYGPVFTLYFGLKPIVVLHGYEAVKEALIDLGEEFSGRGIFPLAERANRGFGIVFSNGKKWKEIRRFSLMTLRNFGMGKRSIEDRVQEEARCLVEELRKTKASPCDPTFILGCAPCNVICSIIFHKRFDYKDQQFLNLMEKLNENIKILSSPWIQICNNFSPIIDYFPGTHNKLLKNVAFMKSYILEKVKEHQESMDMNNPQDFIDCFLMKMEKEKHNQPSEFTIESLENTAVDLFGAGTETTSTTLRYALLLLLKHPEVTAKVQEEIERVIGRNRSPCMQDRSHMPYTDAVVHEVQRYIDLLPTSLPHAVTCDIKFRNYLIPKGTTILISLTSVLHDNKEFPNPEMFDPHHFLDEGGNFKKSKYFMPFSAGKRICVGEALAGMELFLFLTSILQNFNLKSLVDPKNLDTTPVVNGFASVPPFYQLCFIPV
Details: method as in PMID 22166891. Particulars: CYP2C9-catalyzed diclofenac hydroxylation in human liver microsomes; cited from earlier work. For orientation: Liver microsomes are a subcellular fraction often used to study metabolism.

A further data set concerns the target T2, CYP2B6 (Homo sapiens, UniProt P20813).
T2 construct: pooled human liver microsomes (0.2 mg/mL); tissue Corning Life Sciences; host or cells: pooled human liver microsomes (150 donors)
T2 sequence (P20813 1-491): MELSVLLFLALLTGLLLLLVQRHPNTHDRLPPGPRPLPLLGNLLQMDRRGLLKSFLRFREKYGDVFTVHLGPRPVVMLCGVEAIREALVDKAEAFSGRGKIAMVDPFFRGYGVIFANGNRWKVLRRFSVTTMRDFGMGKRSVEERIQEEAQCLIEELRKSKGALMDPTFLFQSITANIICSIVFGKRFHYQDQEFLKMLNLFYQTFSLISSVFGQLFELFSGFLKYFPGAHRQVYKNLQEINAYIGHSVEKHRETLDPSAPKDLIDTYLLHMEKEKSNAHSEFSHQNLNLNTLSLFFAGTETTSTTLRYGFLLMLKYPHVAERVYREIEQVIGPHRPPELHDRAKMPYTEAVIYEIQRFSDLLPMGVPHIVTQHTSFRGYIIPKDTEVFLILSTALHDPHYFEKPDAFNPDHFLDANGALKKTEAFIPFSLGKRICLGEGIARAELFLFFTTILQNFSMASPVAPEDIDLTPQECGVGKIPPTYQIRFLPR
Details: method as in doi:10.1007/s11419-011-0112-7. The note with it: CYP2B6 activity; cited from earlier work.

CYP3A4, sequence (P08684 whole entry): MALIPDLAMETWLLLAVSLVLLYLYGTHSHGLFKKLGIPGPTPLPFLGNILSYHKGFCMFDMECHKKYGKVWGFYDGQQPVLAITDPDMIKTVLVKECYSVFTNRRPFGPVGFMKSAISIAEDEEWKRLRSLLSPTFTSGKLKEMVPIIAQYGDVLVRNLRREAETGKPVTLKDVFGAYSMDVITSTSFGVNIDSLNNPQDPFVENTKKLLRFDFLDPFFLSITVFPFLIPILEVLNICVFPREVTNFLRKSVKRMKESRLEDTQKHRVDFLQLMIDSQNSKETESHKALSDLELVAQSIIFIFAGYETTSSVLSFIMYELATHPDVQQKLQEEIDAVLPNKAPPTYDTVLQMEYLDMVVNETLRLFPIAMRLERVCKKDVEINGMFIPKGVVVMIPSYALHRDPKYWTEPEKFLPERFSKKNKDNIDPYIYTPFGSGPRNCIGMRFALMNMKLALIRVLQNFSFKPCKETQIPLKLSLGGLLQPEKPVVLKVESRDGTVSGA

With `CCCCCc1cc(O)c2c(c1)OC(C)(C)c1ccc(C)cc1-2` [cannabinol], the IC50 on CYP3A4 is more than 50 µM.
Take `CCCCCc1cc(O)c2c(c1)OC(C)(C)[C@@H]1CCC(C)=C[C@@H]21` [THC, Δ9-tetrahydrocannabinol]: the Ki was 1.31 µM on CYP2C9 and 2.81 µM on CYP2B6. Moreover, at CYP3A4, the half-inhibitory concentration (IC50) is more than 50 µM.
